This is an account of results in patent US20240239861A1, “GLUCAGON-RECEPTOR SELECTIVE POLYPEPTIDES AND METHODS OF USE THEREOF” (i2O Therapeutics, Inc., priority 2016, published 2024).

The target of series [1] is human GCGR (Homo sapiens, UniProt P47871). Put plainly: Peptide-receptor mediated cAMP accumulation (LANCE Ultra cAMP) in CHO-K1 cells transfected with human GCGR. The format is cell-based. The following applies: read-out: GluR pEC50 (converted).
For series [2], the target named is human GLP-1R (Homo sapiens, UniProt P43220). As to the kind of experiment: Peptide-receptor mediated cAMP accumulation (LANCE Ultra cAMP) in CHO-K1 cells transfected with human GLP-1R. In kind it is cell-based. As to conditions: Table 7; GLP-1R; read-out: GLP-1R pEC50 (converted).
human GLP-1R, sequence (P43220 24-463): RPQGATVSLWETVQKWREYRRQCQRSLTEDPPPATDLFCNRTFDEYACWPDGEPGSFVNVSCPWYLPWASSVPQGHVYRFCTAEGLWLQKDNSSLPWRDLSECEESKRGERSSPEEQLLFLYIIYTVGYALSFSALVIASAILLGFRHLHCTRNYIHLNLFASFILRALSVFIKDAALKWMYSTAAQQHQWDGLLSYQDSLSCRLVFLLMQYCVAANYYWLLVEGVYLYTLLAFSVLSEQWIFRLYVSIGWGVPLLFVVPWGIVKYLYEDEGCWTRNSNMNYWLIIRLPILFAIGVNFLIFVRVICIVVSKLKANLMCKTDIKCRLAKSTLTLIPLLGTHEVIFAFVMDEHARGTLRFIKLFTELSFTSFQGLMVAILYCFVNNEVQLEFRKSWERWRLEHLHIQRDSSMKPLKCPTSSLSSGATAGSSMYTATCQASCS
The nature of series [3]: Clearance following intravenous infusion, acylated peptides (1-hour infusion, 0.033 mg/kg). As to conditions: rat, in vivo.

*1 amine or outer side, *2 acyl side, *3 side chain or, on linkers, in order; H or OH if unused. Where a SMILES comes first, the peptide text is derived from it. Side-chain parts run from the residue outwards. The star is where a group is joined. γGlu = O=C(O)[C@H](CCC(=O)[*:2])N[*:1]; Palmitoyl = CCCCCCCCCCCCCCCC(=O)* Bounds are passed on as bounds.

human GCGR, sequence (P47871 26-477): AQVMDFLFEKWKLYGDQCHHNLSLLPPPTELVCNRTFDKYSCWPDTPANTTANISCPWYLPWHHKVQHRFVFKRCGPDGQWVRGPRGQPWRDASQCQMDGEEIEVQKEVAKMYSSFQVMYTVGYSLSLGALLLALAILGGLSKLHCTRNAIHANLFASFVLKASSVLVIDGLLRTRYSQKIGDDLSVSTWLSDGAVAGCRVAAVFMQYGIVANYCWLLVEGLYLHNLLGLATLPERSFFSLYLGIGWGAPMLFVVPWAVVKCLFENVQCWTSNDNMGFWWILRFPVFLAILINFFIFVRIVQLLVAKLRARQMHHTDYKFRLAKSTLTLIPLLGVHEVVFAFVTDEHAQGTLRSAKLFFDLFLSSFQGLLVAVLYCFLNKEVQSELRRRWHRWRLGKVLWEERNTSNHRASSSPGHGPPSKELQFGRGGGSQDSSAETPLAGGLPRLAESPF

On to `CCCCCCCCCCCCCCCC(=O)N[C@@H](CCC(=O)NCCCC[C@H](NC(=O)[C@H](CO)NC(=O)[C@H](CCCCN)NC(=O)[C@@H]1CCCN1C(=O)[C@H](CCC(=O)O)NC(=O)[C@H](CC(=O)O)NC(=O)[C@H](CCC(=O)O)NC(=O)[C@H](CC(C)C)NC(=O)[C@H](Cc1c[nH]c2ccccc12)NC(=O)[C@H](CCCCN)NC(=O)[C@@H](NC(=O)[C@H](Cc1ccccc1)NC(=O)[C@H](CCC(=O)O)NC(=O)[C@H](CCC(N)=O)NC(=O)[C@H](C)NC(=O)[C@H](CCCNC(=N)N)NC(=O)[C@H](C)NC(=O)[C@H](C)NC(=O)[C@H](CC(=O)O)NC(=O)[C@H](CC(C)C)NC(=O)[C@H](Cc1ccc(O)cc1)NC(=O)[C@H](CCCCN)NC(=O)[C@H](CO)NC(=O)[C@H](Cc1ccc(O)cc1)NC(=O)[C@H](CC(=O)O)NC(=O)[C@H](CO)NC(=O)[C@@H](NC(=O)[C@H](Cc1ccccc1)NC(=O)[C@@H](NC(=O)CNC(=O)[C@H](CCC(N)=O)NC(=O)[C@H](CO)NC(=O)[C@@H](N)Cc1ccc(O)cc1)[C@@H](C)O)[C@@H](C)O)C(C)C)C(=O)N[C@@H](CO)C(=O)N1CCC[C@H]1C(=O)N1CCC[C@H]1C(=O)N1CCC[C@H]1C(=O)N[C@@H](CO)C(N)=O)C(=O)O` [Compound B33] (H-YSQGTFTSDYSKYLDAARAQEFVKWLEDEPKSK([γGlu-Palmitoyl])SPPPS-NH2), for which, in series [1], the EC50 is 0.0251 nM. The EC50 in series [2] is more than 1000 nM. In series [3], this compound showed a clearance of 6.96 mL/min/kg and a half-life of 0.429 h.

Take `CC(C)C[C@H](NC(=O)[C@H](Cc1c[nH]c2ccccc12)NC(=O)[C@H](CCCCNC(=O)COCCOCCNC(=O)COCCOCCNC(=O)CC[C@H](NC(=O)CCCCCCCCCCCCCCCCC(=O)O)C(=O)O)NC(=O)[C@@H](NC(=O)[C@H](Cc1ccccc1)NC(=O)[C@H](CCC(=O)O)NC(=O)[C@H](CCC(N)=O)NC(=O)[C@H](C)NC(=O)[C@H](CO)NC(=O)[C@H](CCCCN)NC(=O)C(C)(C)NC(=O)[C@H](CC(=O)O)NC(=O)[C@H](CC(C)C)NC(=O)[C@H](Cc1ccc(O)cc1)NC(=O)[C@H](CCCCN)NC(=O)[C@H](CO)NC(=O)[C@H](Cc1ccc(O)cc1)NC(=O)[C@H](CC(=O)O)NC(=O)[C@H](CO)NC(=O)[C@@H](NC(=O)[C@H](Cc1ccccc1)NC(=O)[C@@H](NC(=O)CNC(=O)[C@H](Cc1c[nH]cn1)NC(=O)[C@H](CO)NC(=O)[C@@H](N)Cc1ccc(O)cc1)[C@@H](C)O)[C@@H](C)O)C(C)C)C(=O)N[C@@H](CCC(=O)O)C(=O)N[C@@H](CC(=O)O)C(=O)N[C@@H](CCC(=O)O)C(=O)N1CCC[C@H]1C(=O)N[C@@H](CO)C(=O)N[C@@H](CO)C(=O)NCC(=O)N[C@@H](C)C(=O)N1CCC[C@H]1C(=O)N1CCC[C@H]1C(=O)N1CCC[C@H]1C(=O)N[C@@H](CO)C(=O)O` [Compound B14]: the EC50 in series [1] is 0.501 nM. Besides, the EC50 in series [2] is more than 1000 nM. In series [3], the clearance worked out at 2.65 mL/min/kg and the half-life was 13.9 h.

On to `CCCCCCCCCCCCCCCC(=O)N[C@@H](CCC(=O)NCCCC[C@H](NC(=O)[C@H](CC(=O)O)NC(=O)[C@H](CC(C)C)NC(=O)[C@H](Cc1ccc(O)cc1)NC(=O)[C@H](CCCCN)NC(=O)[C@H](CO)NC(=O)[C@H](Cc1ccc(O)cc1)NC(=O)[C@H](CC(=O)O)NC(=O)[C@H](CO)NC(=O)[C@@H](NC(=O)[C@H](Cc1ccccc1)NC(=O)[C@@H](NC(=O)CNC(=O)[C@H](Cc1c[nH]cn1)NC(=O)[C@H](CO)NC(=O)[C@@H](N)Cc1ccc(O)cc1)[C@@H](C)O)[C@@H](C)O)C(=O)N[C@@H](CCCCN)C(=O)N[C@@H](Cc1ccc(O)cc1)C(=O)N[C@@H](C)C(=O)N[C@@H](CCC(N)=O)C(=O)N[C@@H](CCC(=O)O)C(=O)N[C@@H](Cc1ccccc1)C(=O)N[C@H](C(=O)NC(C)(C)C(=O)N[C@@H](Cc1c[nH]c2ccccc12)C(=O)N[C@@H](CC(C)C)C(=O)N[C@@H](CCC(=O)O)C(=O)N[C@@H](CC(=O)O)C(=O)N[C@@H](CCC(=O)O)C(=O)N1CCC[C@H]1C(=O)N[C@@H](CO)C(=O)N[C@@H](CO)C(=O)NCC(=O)N[C@@H](C)C(=O)N1CCC[C@H]1C(=O)N1CCC[C@H]1C(=O)N1CCC[C@H]1C(=O)N[C@@H](CO)C(=O)O)C(C)C)C(=O)O` [Compound B3], for which, in series [1], the EC50 was 0.00398 nM. In series [2], the EC50 was more than 1000 nM. Also, in series [3], the clearance was determined as 18.8 mL/min/kg and the half-life was 1.79 h.
